Data on five compounds can be found in the supplement of paper PMC10307832.

The structures appear in SMILES notation.

For one test, the system named is EMC-BAC-2. Kind of test: relative viability (nuclei count vs DMSO), 5 days (fraction); higher = more cells survive. The note with it: first compound 0.2 µM. In outline: (§1)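 Nuclei were stained with Hoechst during a one-step fixation (final 0.05% Triton X-100, 1% formaldehyde, 1 ug/ml Hoechst) carried out 5 days after dosing, then counted on 4× images. The cells, lung cancer lines in 1536-well plates, had been dosed by pin tool the day after seeding with one drug alone or a fixed anchor-drug dose plus five library-drug doses (not always all listed) in √10 steps. Relative viability is the nuclei count in treated wells divided by that in vehicle wells, and each value is the median of duplicate plates.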
`COCC1(CO)C(=O)C2CCN1CC2` (stereo unspecified) [PRIMA-1MET] + CS(=O)(=O)N1CCN(Cc2cc3nc(-c4cccc5[nH]ncc45)nc(N4CCOCC4)c3s2)CC1 [Pictilisib] (partner 1 µM) yielded a relative viability of 0.608.
On to `COCC1(CO)C(=O)C2CCN1CC2` (stereo unspecified) [PRIMA-1MET] + CS(=O)(=O)CCNCc1ccc(-c2ccc3ncnc(Nc4ccc(OCc5cccc(F)c5)c(Cl)c4)c3c2)o1 [Lapatinib] (partner 2 µM), for which the relative viability is 0.918.
With `COCC1(CO)C(=O)C2CCN1CC2` (stereo unspecified) [PRIMA-1MET] + C[C@]1(O)C[C@@H](c2nc(-c3ccc4ccc(-c5ccccc5)nc4c3)c3c(N)nccn32)C1 [Linsitinib] (partner 1 µM), the relative viability amounted to 0.843.
`COCC1(CO)C(=O)C2CCN1CC2` (stereo unspecified) [PRIMA-1MET] + COc1cc2c(Oc3ccc(NC(=O)C4(C(=O)Nc5ccc(F)cc5)CC4)cc3F)ccnc2cc1OCCCN1CCOCC1 [Foretinib] (partner 0.25 µM) yielded a relative viability of 1.17.
`COCC1(CO)C(=O)C2CCN1CC2` (stereo unspecified) [PRIMA-1MET] + Cc1nc(NC(=O)N2CCC[C@H]2C(N)=O)sc1-c1ccnc(C(C)(C)C(F)(F)F)c1 [Alpelisib] (partner 2 µM) gave a relative viability of 0.82.

Still in this test, the particulars now being: first compound 0.6325 µM.
`COCC1(CO)C(=O)C2CCN1CC2` (stereo unspecified) [PRIMA-1MET] + CS(=O)(=O)N1CCN(Cc2cc3nc(-c4cccc5[nH]ncc45)nc(N4CCOCC4)c3s2)CC1 [Pictilisib] (partner 1 µM) came in with a relative viability of 0.503.
Compound `COCC1(CO)C(=O)C2CCN1CC2` (stereo unspecified) [PRIMA-1MET] + CS(=O)(=O)CCNCc1ccc(-c2ccc3ncnc(Nc4ccc(OCc5cccc(F)c5)c(Cl)c4)c3c2)o1 [Lapatinib] (partner 2 µM) came in with a relative viability of 0.895.
For the compound `COCC1(CO)C(=O)C2CCN1CC2` (stereo unspecified) [PRIMA-1MET] + C[C@]1(O)C[C@@H](c2nc(-c3ccc4ccc(-c5ccccc5)nc4c3)c3c(N)nccn32)C1 [Linsitinib] (partner 1 µM), the relative viability was found to be 0.822.
`COCC1(CO)C(=O)C2CCN1CC2` (stereo unspecified) [PRIMA-1MET] + COc1cc2c(Oc3ccc(NC(=O)C4(C(=O)Nc5ccc(F)cc5)CC4)cc3F)ccnc2cc1OCCCN1CCOCC1 [Foretinib] (partner 0.25 µM) had a relative viability of 1.01.
`COCC1(CO)C(=O)C2CCN1CC2` (stereo unspecified) [PRIMA-1MET] + Cc1nc(NC(=O)N2CCC[C@H]2C(N)=O)sc1-c1ccnc(C(C)(C)C(F)(F)F)c1 [Alpelisib] (partner 2 µM) displayed a relative viability of 0.719.

Staying with this test, now noted: first compound 2 µM.
Regarding `COCC1(CO)C(=O)C2CCN1CC2` (stereo unspecified) [PRIMA-1MET] + CS(=O)(=O)N1CCN(Cc2cc3nc(-c4cccc5[nH]ncc45)nc(N4CCOCC4)c3s2)CC1 [Pictilisib] (partner 1 µM), the relative viability came out at 0.343.
Same read-out and setting: with `COCC1(CO)C(=O)C2CCN1CC2` (stereo unspecified) [PRIMA-1MET] + CS(=O)(=O)CCNCc1ccc(-c2ccc3ncnc(Nc4ccc(OCc5cccc(F)c5)c(Cl)c4)c3c2)o1 [Lapatinib] (partner 2 µM) the figure was 0.766.
The compound `COCC1(CO)C(=O)C2CCN1CC2` (stereo unspecified) [PRIMA-1MET] + C[C@]1(O)C[C@@H](c2nc(-c3ccc4ccc(-c5ccccc5)nc4c3)c3c(N)nccn32)C1 [Linsitinib] (partner 1 µM) registered a relative viability of 0.784.
The same measure, in the same setting: for `COCC1(CO)C(=O)C2CCN1CC2` (stereo unspecified) [PRIMA-1MET] + Cc1nc(NC(=O)N2CCC[C@H]2C(N)=O)sc1-c1ccnc(C(C)(C)C(F)(F)F)c1 [Alpelisib] (partner 2 µM) the value was 0.666.

The test is the same for the next values; noted with them: first compound 6.325 µM.
Compound `COCC1(CO)C(=O)C2CCN1CC2` (stereo unspecified) [PRIMA-1MET] + CS(=O)(=O)N1CCN(Cc2cc3nc(-c4cccc5[nH]ncc45)nc(N4CCOCC4)c3s2)CC1 [Pictilisib] (partner 1 µM) came in with a relative viability of 0.566.
Still for that read-out and setting: for `COCC1(CO)C(=O)C2CCN1CC2` (stereo unspecified) [PRIMA-1MET] + CS(=O)(=O)CCNCc1ccc(-c2ccc3ncnc(Nc4ccc(OCc5cccc(F)c5)c(Cl)c4)c3c2)o1 [Lapatinib] (partner 2 µM) the value was 0.89; for `COCC1(CO)C(=O)C2CCN1CC2` (stereo unspecified) [PRIMA-1MET] + C[C@]1(O)C[C@@H](c2nc(-c3ccc4ccc(-c5ccccc5)nc4c3)c3c(N)nccn32)C1 [Linsitinib] (partner 1 µM), 0.821; for `COCC1(CO)C(=O)C2CCN1CC2` (stereo unspecified) [PRIMA-1MET] + COc1cc2c(Oc3ccc(NC(=O)C4(C(=O)Nc5ccc(F)cc5)CC4)cc3F)ccnc2cc1OCCCN1CCOCC1 [Foretinib] (partner 0.25 µM), 1.04.
`COCC1(CO)C(=O)C2CCN1CC2` (stereo unspecified) [PRIMA-1MET] + Cc1nc(NC(=O)N2CCC[C@H]2C(N)=O)sc1-c1ccnc(C(C)(C)C(F)(F)F)c1 [Alpelisib] (partner 2 µM): the relative viability was 0.775.

Staying with this test, now noted: first compound 20 µM.
`COCC1(CO)C(=O)C2CCN1CC2` (stereo unspecified) [PRIMA-1MET] + CS(=O)(=O)N1CCN(Cc2cc3nc(-c4cccc5[nH]ncc45)nc(N4CCOCC4)c3s2)CC1 [Pictilisib] (partner 1 µM) returned a relative viability of 0.583.
As for `COCC1(CO)C(=O)C2CCN1CC2` (stereo unspecified) [PRIMA-1MET] + CS(=O)(=O)CCNCc1ccc(-c2ccc3ncnc(Nc4ccc(OCc5cccc(F)c5)c(Cl)c4)c3c2)o1 [Lapatinib] (partner 2 µM), the relative viability was 0.897.
In turn, `COCC1(CO)C(=O)C2CCN1CC2` (stereo unspecified) [PRIMA-1MET] + C[C@]1(O)C[C@@H](c2nc(-c3ccc4ccc(-c5ccccc5)nc4c3)c3c(N)nccn32)C1 [Linsitinib] (partner 1 µM) yielded a relative viability of 0.817.
On to `COCC1(CO)C(=O)C2CCN1CC2` (stereo unspecified) [PRIMA-1MET] + COc1cc2c(Oc3ccc(NC(=O)C4(C(=O)Nc5ccc(F)cc5)CC4)cc3F)ccnc2cc1OCCCN1CCOCC1 [Foretinib] (partner 0.25 µM), for which the relative viability came to 1.03.
In the case of `COCC1(CO)C(=O)C2CCN1CC2` (stereo unspecified) [PRIMA-1MET] + Cc1nc(NC(=O)N2CCC[C@H]2C(N)=O)sc1-c1ccnc(C(C)(C)C(F)(F)F)c1 [Alpelisib] (partner 2 µM), the relative viability was 0.759.

The next test deals with LCLC-97TM1. The description is as above. To be noted: first compound 0.2 µM. In outline: as §1
In turn, `COCC1(CO)C(=O)C2CCN1CC2` (stereo unspecified) [PRIMA-1MET] + CS(=O)(=O)N1CCN(Cc2cc3nc(-c4cccc5[nH]ncc45)nc(N4CCOCC4)c3s2)CC1 [Pictilisib] (partner 1 µM) yielded a relative viability of 0.127.
Take `COCC1(CO)C(=O)C2CCN1CC2` (stereo unspecified) [PRIMA-1MET] + CS(=O)(=O)CCNCc1ccc(-c2ccc3ncnc(Nc4ccc(OCc5cccc(F)c5)c(Cl)c4)c3c2)o1 [Lapatinib] (partner 2 µM): the relative viability was 0.776.
The compound `COCC1(CO)C(=O)C2CCN1CC2` (stereo unspecified) [PRIMA-1MET] + C[C@]1(O)C[C@@H](c2nc(-c3ccc4ccc(-c5ccccc5)nc4c3)c3c(N)nccn32)C1 [Linsitinib] (partner 1 µM) returned a relative viability of 0.213.
Same read-out and setting: with `COCC1(CO)C(=O)C2CCN1CC2` (stereo unspecified) [PRIMA-1MET] + COc1cc2c(Oc3ccc(NC(=O)C4(C(=O)Nc5ccc(F)cc5)CC4)cc3F)ccnc2cc1OCCCN1CCOCC1 [Foretinib] (partner 0.25 µM) the figure was 0.915.
`COCC1(CO)C(=O)C2CCN1CC2` (stereo unspecified) [PRIMA-1MET] + Cc1nc(NC(=O)N2CCC[C@H]2C(N)=O)sc1-c1ccnc(C(C)(C)C(F)(F)F)c1 [Alpelisib] (partner 2 µM) yielded a relative viability of 0.277.

Still in this test, the particulars now being: first compound 0.6325 µM.
In the case of `COCC1(CO)C(=O)C2CCN1CC2` (stereo unspecified) [PRIMA-1MET] + COc1cc2c(Oc3ccc(NC(=O)C4(C(=O)Nc5ccc(F)cc5)CC4)cc3F)ccnc2cc1OCCCN1CCOCC1 [Foretinib] (partner 0.25 µM), the relative viability was determined as 0.909.

The same test, now with this note: first compound 2 µM.
With `COCC1(CO)C(=O)C2CCN1CC2` (stereo unspecified) [PRIMA-1MET] + CS(=O)(=O)N1CCN(Cc2cc3nc(-c4cccc5[nH]ncc45)nc(N4CCOCC4)c3s2)CC1 [Pictilisib] (partner 1 µM), the relative viability came to 0.234.
